Assays:
[1] = biological target: T1, TEL-BLK-BaF3 cells (stably expressing TEL-BLK activated kinase) (Homo sapiens, UniProt P51451); experiment: Cell proliferation (Cell Titer-Glo), BaF3-tel-BLK; format: cell-based; conditions: BaF3-tel-BLK (mouse BaF3 cells), 72 hours; read-out: Effects on cell proliferation (GI50)
T1 construct: expressed in transfected cells; host or cells: mouse BaF3 cells, retroviral MSCV-Puro; the other entry of the earlier key: ETV6 (P41212, Transcription factor ETV6)
Experimental: (§1) The selectivity of Compound 1 in inhibiting the proliferation of cancer cells was further evaluated by testing the effect of Btk inhibitors on the growth of cancer cells. […]
(§2) In this example different concentrations (0.000508 μM, 0.00152 μM, 0.00457 μM, 0.0137 μM, 0.0411 μM, 0.123 μM, 0.370 μM, 1.11 μM, 3.33 μM, 10 μM) of Compound 1 and Compound 6 were respectively added into the above cells which were then cultured for 72 hours. The number of viable cells was determined via quantitative determination of ATP in living cells by using Cell Titer-Glo® (Promega, the USA) Chemical Luminescent Cell Viability Assay kit.

[2] = biological target: BTK protein kinase (Homo sapiens, UniProt Q06187); experiment: In vitro enzymatic activity against BTK (ADP-Glo); format: biochemical; conditions: for IC50: compound with BTK 4 hours at room temperature, ATP 10 μM, 37° C. 1 hour, values in nM
In short: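 BTK (1.5 ng/μL enzyme solution) was preincubated with compound (final 10 μM to 0.003 μM) for 4 h at room temperature. Reaction ran 1 h at 37 °C with 10 μM ATP and 0.2 μg/μL poly(Glu,Tyr) 4:1 (final). ADP formed was measured by ADP-Glo luminescence, and IC50 was obtained by curve plotting.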

[3] = system: bone marrow plasma cell tumor cells AMO-1; experiment: Cell proliferation (Cell Titer-Glo), AMO-1; format: cell-based; conditions: Homo sapiens, AMO1; AMO-1, 72 hours; read-out: Effects on cell proliferation (GI50)
Experimental: as §1, §2

[4] = system: colon cancer cells HCT116; experiment: Cell proliferation (Cell Titer-Glo), HCT116; format: cell-based; conditions: Homo sapiens, HCT-116; HCT116, 72 hours; read-out: Effects on cell proliferation (GI50)
Experimental: as §1, §2

[5] = system: acute myeloid leukemia cell lines MOLM14; experiment: Cell proliferation (Cell Titer-Glo), MOLM14; format: cell-based; conditions: Homo sapiens, MOLM-14; MOLM14, 72 hours; read-out: Effects on cell proliferation (GI50)
Experimental: as §1, §2

[6] = system: acute myeloid leukemia cell lines MOLM16; experiment: Cell proliferation (Cell Titer-Glo), MOLM-16; format: cell-based; conditions: MOLM-16, 72 hours, read-out: Effects on cell proliferation (GI50)
Experimental: as §1, §2

[7] = system: diffuse histiocytic lymphoma cells SU-DHL-2; experiment: Cell proliferation (Cell Titer-Glo), SU-DHL-2; format: cell-based; conditions: Homo sapiens; SU-DHL-2, 72 hours; read-out: Effects on cell proliferation (GI50)
Experimental: as §1, §2

[8] = system: diffuse large B-cell lymphoma cell line OCI-LY10; experiment: Cell proliferation (Cell Titer-Glo), OCI-LY10; format: cell-based; conditions: Homo sapiens; OCI-LY10, 72 hours; read-out: Effects on cell proliferation (GI50)
Experimental: as §1, §2

[9] = biological target: T2, TEL-JAK3-BaF3 cells (stably expressing TEL-JAK3 activated kinase) (Homo sapiens, UniProt P52333); experiment: Cell proliferation (Cell Titer-Glo), BaF3-tel-JAK3; format: cell-based; conditions: BaF3-tel-JAK3 (mouse BaF3 cells), 72 hours; read-out: Effects on cell proliferation (GI50)
T2 construct: expressed in transfected cells; host or cells: mouse BaF3 cells, retroviral MSCV-Puro; the other entry of the earlier key: ETV6 (P41212, Transcription factor ETV6)
Experimental: as §1, §2

[10] = system: diffuse large B-cell lymphoma cell lines TMD8; experiment: Cell proliferation (Cell Titer-Glo), TMD8; format: cell-based; conditions: Homo sapiens, TMD8, 72 h, read-out: Effects on cell proliferation (GI50)
Description: The following cells were adopted in the example: acute myelocytic leukemia cell strains (acute myelocytic leukemia, AML) HL-60, B-lymphoma cell Ramos, colon cancer cells HCT116, leukemic cells K562, B-cell lymphoma cells U2932, diffuse large B-cell lymphoma cell line OCI-LY10, diffuse histiocytic lymphoma cells SU-DHL-2, diffuse large B-cell lymphoma cell lines TMD8, leukemia cell OCI-AML-3, acute promyelocytic leukemia cell line NB-4 (Lu+), MDS-RAEB (myelodysplastic syndrome—excessive blasts) cell lines SKM-1, human leukocyte leukemia cells HEL, acute myeloid leukemia cell lines (acute myelocytic leukemia, AML) U937, acute myeloid leukemia cell lines (acute myelocytic leukemia, AML) MOLM14, acute myeloid leukemia cell lines (acute myelocytic leukemia, AML) MOLM13, acute myeloid leukemia cell lines (acute myelocytic leukemia, AML) M-07e, acute myeloid leukemia cell lines (acute myelocytic leukemia, AML) MV4-11, acute myeloid leukemia cell lines (acute myelocytic leukemia, AML) MOLM16, diffuse large B-cell lymphoma cell lines Pfeiffer, multiple myeloma cell lines (multiple myeloma) RPM18226, bone marrow plasma cell tumor cells AMO-1, mouse pro-B cells BaF3, all purchased from ATCC.

[11] = system: leukemia cell OCI-AML-3; experiment: Cell proliferation (Cell Titer-Glo), OCI-AML-3; format: cell-based; conditions: Homo sapiens; OCI-AML-3, 72 hours; read-out: Effects on cell proliferation (GI50)
Experimental: as §1, §2

[12] = system: B-lymphoma cell Ramos; experiment: Cell proliferation (Cell Titer-Glo), Ramos; format: cell-based; conditions: Homo sapiens, Romas, 72 hours, read-out: Effects on cell proliferation (GI50)
Experimental: as §1, §2

Chain of BTK protein kinase (Q06187 whole entry): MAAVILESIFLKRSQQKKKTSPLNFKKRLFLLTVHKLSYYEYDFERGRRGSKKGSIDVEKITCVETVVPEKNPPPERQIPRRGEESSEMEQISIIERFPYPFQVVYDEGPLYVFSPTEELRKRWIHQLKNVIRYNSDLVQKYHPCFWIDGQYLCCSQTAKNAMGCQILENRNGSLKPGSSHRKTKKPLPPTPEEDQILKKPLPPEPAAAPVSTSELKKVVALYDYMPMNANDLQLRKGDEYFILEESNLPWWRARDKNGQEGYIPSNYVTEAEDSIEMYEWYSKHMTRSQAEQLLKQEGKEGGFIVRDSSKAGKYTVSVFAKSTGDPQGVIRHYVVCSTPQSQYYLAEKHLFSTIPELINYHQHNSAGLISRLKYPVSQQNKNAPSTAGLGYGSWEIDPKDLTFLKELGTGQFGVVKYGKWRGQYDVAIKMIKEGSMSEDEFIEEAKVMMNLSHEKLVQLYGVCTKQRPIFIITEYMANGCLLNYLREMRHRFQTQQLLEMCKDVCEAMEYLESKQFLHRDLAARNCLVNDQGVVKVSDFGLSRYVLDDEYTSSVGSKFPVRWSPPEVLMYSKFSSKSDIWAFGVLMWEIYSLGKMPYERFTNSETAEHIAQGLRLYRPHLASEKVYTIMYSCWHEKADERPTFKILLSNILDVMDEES
T2 sequence (P52333 822-1111 limits assumed): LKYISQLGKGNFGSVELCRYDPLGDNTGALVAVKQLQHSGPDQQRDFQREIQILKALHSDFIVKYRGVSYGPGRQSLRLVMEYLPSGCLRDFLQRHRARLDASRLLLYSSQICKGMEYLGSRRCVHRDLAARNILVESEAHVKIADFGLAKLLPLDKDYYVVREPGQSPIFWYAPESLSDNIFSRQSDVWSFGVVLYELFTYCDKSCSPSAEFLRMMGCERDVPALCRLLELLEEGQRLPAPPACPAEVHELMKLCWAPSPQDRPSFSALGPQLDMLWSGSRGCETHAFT
T1 sequence (P51451 241-494 limits assumed): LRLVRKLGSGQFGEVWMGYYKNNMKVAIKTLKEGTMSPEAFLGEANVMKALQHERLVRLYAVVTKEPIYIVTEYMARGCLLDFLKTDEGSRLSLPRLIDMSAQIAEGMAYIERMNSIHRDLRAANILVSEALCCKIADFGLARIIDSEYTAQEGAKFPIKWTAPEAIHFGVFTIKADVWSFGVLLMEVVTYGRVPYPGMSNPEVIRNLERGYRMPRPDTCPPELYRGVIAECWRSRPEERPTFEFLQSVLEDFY

GI50 [1] [µM] | IC50 [2] [nM] | GI50 [3] [µM] | GI50 [4] [µM] | GI50 [5] [µM] | GI50 [6] [µM] | GI50 [7] [µM] | GI50 [8] [µM] | GI50 [9] [µM] | GI50 [10] [µM] | GI50 [11] [µM] | GI50 [12] [µM] | inhibitory effects on BTK protein ([2]; ADP-Glo assay, in words) | SMILES
4.7 | 7.09 | 3.4 | > 10 | 6.4 | 3.5 | 3 | 3.4 | 3.2 | 0.001 | 3.8 | 3.5 | – | C=CC(=O)Nc1cc(Nc2cc(-c3cccc(NC(=O)c4ccc(C(C)(C)C)cc4)c3C)cn(C)c2=O)ccc1C(=O)N1CCOCC1 [Compound 1, N-(3-(5-((3-acrylamide-4-(morpholin-4-carbonyl)phenyl)amino)-1-methyl-6-oxo-1,6-dihydropyridin-3-yl)-2-methylphenyl)-4-(tert-butyl)benzamide]
5.4 | 207 | 8 | > 10 | > 10 | > 10 | > 10 | 3 to 10 | 4.6 | 0.75 | 9.5 | 4.6 | relatively strong inhibitory effects | CCC(=O)Nc1cc(Nc2cc(-c3cccc(NC(=O)c4ccc(C(C)(C)C)cc4)c3C)cn(C)c2=O)ccc1C(=O)N1CCOCC1 [Compound 6, N-(3-(5-((3-propanamide-4-(morpholin-4-carbonyl)phenyl)amino)-1-methyl-6-oxo-1,6-dihydropyridin-3-yl)-2-methylphenyl)-4-(tert-butyl)benzamide]

Reference: patent US10669238B2, “Irreversible bruton's tyrosine kinase inhibitor” (HEFEI INSTITUTES OF PHYSICAL SCIENCE, CHINESE ACADEMY OF …, priority 2016, dated 2020)
